According to patent publication US20250092039A1, “GLUTARIMIDE-CONTAINING PAN-KRAS-MUTANT DEGRADER COMPOUNDS AND USES THEREOF” (Tiger Biotherapeutics Inc., priority 2022, published 2025):

Experiments:
KRAS-G12V/RAF1 = KRAS-G12V/RAF1 (Homo sapiens (Human), UniProt P01116, G12V); test: KRAS/RAF1 binding inhibition assay (AlphaScreen)
In short: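 Binding of GppNHp-loaded KRAS G12V to the RAF1 RBD was measured by AlphaScreen with test compound present in 2% DMSO (final), 60 min incubation at 4° C. Signals were converted to % inhibition versus DMSO, and IC50 was obtained by variable-slope nonlinear regression.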

[1] = Pharmacokinetics following single intravenous and oral gavage dosing (AUC0-24h); format: in vivo; settings: mouse, plasma, male CD-1 mice
Method: Compounds disclosed herein were studied for animal tolerability and pharmacokinetics following single intravenous (iv) and oral gavage (po) dosing to male CD-1 mice. For each compound in each dosing route, 3 mice were used with iv dosing volume of 5 mL/kg and po dosing volume of 10 mL/kg. The compounds were formulated in 10% DMSO, 30% PEG400, 60% aqueous solution containing 20% 2-hydroxypropyl-β-cyclodextrin. Blood sampling time points for iv dosing were 0.083, 0.25, 0.5, 1, 2, 4, 8 and 24 h. The sampling time points for po dosing were 0.25, 0.5, 1, 2, 4, 6, 8 and 24 h. Mice activities were monitored and recorded immediately following the dosing. The prepared plasma samples were analyzed using LC/MS/MS on AB Sciex Triple Quad 5500+ system. The PK parameters were determined by non-compartmental analysis using WinNonlin (Version 8.0).

SW620 cells = test: 3D cell growth inhibition of SW620 cells carrying endogenous KRAS G12V mutation (CellTiter-Glo 3D, GI50); format: cell-based; settings: Homo sapiens, SW-620, 144 h; SW620 cells, 6 days; read-out: SW620 3D cell growth GI50
In short: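 SW620 cells (endogenous KRAS G12V) grown in 3D were dosed next day with compound from DMSO stocks at various concentrations, then incubated 6 days at 37° C.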

KRAS G12V = KRAS G12V (Homo sapiens (Human), UniProt P01116, G12V); test: KRAS G12V degradation in SW620 cells (Western blot, DC50); format: cell-based; settings: 24 hours
Sequence of KRAS G12V (P01116-2 other isoform, or with tags, fused parts or gaps G12V): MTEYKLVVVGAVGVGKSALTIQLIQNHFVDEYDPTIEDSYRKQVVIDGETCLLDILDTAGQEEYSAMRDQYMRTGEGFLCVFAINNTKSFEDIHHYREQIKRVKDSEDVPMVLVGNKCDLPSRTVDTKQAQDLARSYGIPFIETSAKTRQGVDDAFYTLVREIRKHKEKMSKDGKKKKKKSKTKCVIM
In short: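 SW620 cells (homozygous KRAS G12V) were treated with compound for 24 hours at 37° C. KRAS in lysates was measured by Western blot with fluorescent secondary antibodies and expressed relative to DMSO vehicle (100%). DC50 came from a four-parameter variable-slope dose-response fit.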

Sequence of KRAS-G12V/RAF1 (P01116-2 other isoform, or with tags, fused parts or gaps G12V): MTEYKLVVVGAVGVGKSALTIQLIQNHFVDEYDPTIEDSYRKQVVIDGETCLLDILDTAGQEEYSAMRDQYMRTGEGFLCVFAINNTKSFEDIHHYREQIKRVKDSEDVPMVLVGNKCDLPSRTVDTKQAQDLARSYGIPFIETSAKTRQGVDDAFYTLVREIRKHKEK

Row | Structure (SMILES) | IC50 (KRAS-G12V/RAF1) [nM] | AUC(0-t) ([1]; single oral dose 30 mg/Kg) [ng·h/mL] | GI50 (SW620 cells) [nM] | DC50 (KRAS G12V) [nM] | AUC(0-t) ([1]; single oral dose 50 mg/Kg) [ng·h/mL] | AUC(0-t) ([1]; single oral dose 15 mg/Kg) [ng·h/mL]
1 | CCc1c(F)ccc2cc(O)cc(-c3ncc4c(N5CCCC6(CCO6)C5)nc(OCC5(CN6CCC(CN7CCN(c8ccc9c(c8)CN([C@H]8CCC(=O)NC8=O)C9=O)CC7)CC6)CC5)nc4c3F)c12 (stereo partly drawn) [Compound 23, (3S)-3-(5-(4-((1-((1-(((7-(8-ethyl-7-fluoro-3-hydroxynaphthalen-1-yl)-8-fluoro-4-(1-oxa-6-azaspiro[3.5]nonan-6-yl)pyrido[4,3-d]pyrimidin-2-yl)oxy)methyl)cyclopropyl)methyl)piperidin-4-yl)methyl)piperazin-1-yl)-1-oxoisoindolin-2-yl)piperidine-2,6-dione] | 20 to 200 | 783 | < 10 | – | – | –
2 | CCc1c(F)ccc2cc(O)cc(-c3ncc4c(N5CCC[C@@](C)(O)C5)nc(OCC5(CN6CCC(C)(CN7CC8(CCN(c9ccc%10c(c9)CN([C@H]9CCC(=O)NC9=O)C%10=O)CC8)C7)CC6)CC5)nc4c3F)c12 [Compound 40, (3S)-3-(5-(2-[(1-{[1-({[7-(8-ethyl-7-fluoro-3-hydroxynaphthalen-1-yl)-8-fluoro-4-[(3R)-3-hydroxy-3-methylpiperidin-1-yl]pyrido[4,3-d]pyrimidin-2-yl]oxy}methyl)cyclopropyl]methyl}-4-methylpiperidin-4-yl)methyl]-2,7-diazaspiro[3.5]nonan-7-yl}-1-oxo-3H-isoindol-2-yl)piperidine-2,6-dione] | < 20 | 652 | < 10 | < 1 | – | –
3 | CCc1c(F)ccc2cc(O)cc(-c3ncc4c(N5CCC[C@@](C)(O)C5)nc(OCC5(CN6CCC7(CC6)CC(N6CCN(c8ccc9c(c8)CN([C@H]8CCC(=O)NC8=O)C9=O)CC6)C7)CC5)nc4c3F)c12 [Compound 121, (S)-3-(5-(4-(7-((1-(((7-(8-ethyl-7-fluoro-3-hydroxynaphthalen-1-yl)-8-fluoro-4-((R)-3-hydroxy-3-methylpiperidin-1-yl)pyrido[4,3-d]pyrimidin-2-yl)oxy)methyl)cyclopropyl)methyl)-7-azaspiro[3.5]nonan-2-yl)piperazin-1-yl)-1-oxoisoindolin-2-yl)piperidine-2,6-dione] | < 20 | – | < 10 | < 1 | 598 | –
4 | CCc1cccc2cc(O)cc(-c3ncc4c(N5CCC[C@@](C)(O)C5)nc(OCC5(CN6CCC(F)(CN7CC8(CCN(c9ccc%10c(c9)CN(C9CCC(=O)NC9=O)C%10=O)CC8)C7)CC6)CC5)nc4c3F)c12 (stereo partly drawn) [Compound 28, 3-(5-(2-((1-((1-(((7-(8-ethyl-3-hydroxynaphthalen-1-yl)-8-fluoro-4-((R)-3-hydroxy-3-methylpiperidin-1-yl)pyrido[4,3-d]pyrimidin-2-yl)oxy)methyl)cyclopropyl)methyl)-4-fluoropiperidin-4-yl)methyl)-2,7-diazaspiro[3.5]nonan-7-yl)-1-oxoisoindolin-2-yl)piperidine-2,6-dione] | 20 to 200 | 539 | < 10 | < 1 | – | –
5 | CCc1c(F)ccc2cc(O)cc(-c3ncc4c(N5CCC[C@]6(CCO6)C5)nc(OCC5(CN6CCC(F)(CN7CCN(c8ccc9c(c8)CN([C@H]8CCC(=O)NC8=O)C9=O)CC7)CC6)CC5)nc4c3F)c12 [Compound 86, (S)-3-(5-(4-((1-((1-(((7-(8-ethyl-7-fluoro-3-hydroxynaphthalen-1-yl)-8-fluoro-4-((S)-1-oxa-6-azaspiro[3.5]nonan-6-yl)pyrido[4,3-d]pyrimidin-2-yl)oxy)methyl)cyclopropyl)methyl)-4-fluoropiperidin-4-yl)methyl)piperazin-1-yl)-1-oxoisoindolin-2-yl)piperidine-2,6-dione] | 20 to 200 | 1320 | < 10 | < 1 | – | –
6 | CCc1c(F)ccc2cc(O)cc(-c3ncc4c(N5CCC[C@]6(CCO6)C5)nc(OCC5(CN6CCC(C)(CN7CCN(c8ccc9c(c8)CN([C@H]8CCC(=O)NC8=O)C9=O)CC7)CC6)CC5)nc4c3F)c12 [Compound 217, (S)-3-(5-(4-((1-((1-(((7-(8-ethyl-7-fluoro-3-hydroxynaphthalen-1-yl)-8-fluoro-4-((S)-1-oxa-6-azaspiro[3.5]nonan-6-yl)pyrido[4,3-d]pyrimidin-2-yl)oxy)methyl)cyclopropyl)methyl)-4-methylpiperidin-4-yl)methyl)piperazin-1-yl)-1-oxoisoindolin-2-yl)piperidine-2,6-dione] | 20 to 200 | – | < 10 | < 1 | – | 977
7 | CCc1c(F)ccc2cc(O)cc(-c3ncc4c(N5CCC[C@]6(CCO6)C5)nc(OCC5(CN6CCC7(CC6)CC(F)(CN6CCN(c8cc(F)c(C9CCC(=O)NC9=O)c(F)c8)CC6)C7)CC5)nc4c3F)c12 (stereo partly drawn) [Compound 215, 3-(4-(4-((7-((1-(((7-(8-ethyl-7-fluoro-3-hydroxynaphthalen-1-yl)-8-fluoro-4-((S)-1-oxa-6-azaspiro[3.5]nonan-6-yl)pyrido[4,3-d]pyrimidin-2-yl)oxy)methyl)cyclopropyl)methyl)-2-fluoro-7-azaspiro[3.5]nonan-2-yl)methyl)piperazin-1-yl)-2,6-difluorophenyl)piperidine-2,6-dione] | 20 to 200 | 4710 | < 10 | < 1 | – | –
8 | CCc1c(F)ccc2cc(O)cc(-c3ncc4c(N5CCC[C@]6(CCO6)C5)nc(OCC5(CN6CCC7(CC6)CC(F)(CN6CCN(c8ccc9c(c8)CN([C@H]8CCC(=O)NC8=O)C9=O)CC6)C7)CC5)nc4c3F)c12 [Compound 214, (S)-3-(5-(4-((7-((1-(((7-(8-ethyl-7-fluoro-3-hydroxynaphthalen-1-yl)-8-fluoro-4-((S)-1-oxa-6-azaspiro[3.5]nonan-6-yl)pyrido[4,3-d]pyrimidin-2-yl)oxy)methyl)cyclopropyl)methyl)-2-fluoro-7-azaspiro[3.5]nonan-2-yl)methyl)piperazin-1-yl)-1-oxoisoindolin-2-yl)piperidine-2,6-dione] | 20 to 200 | 1460 | < 10 | < 1 | – | –
9 | CCc1c(F)ccc2cc(O)cc(-c3ncc4c(N5CCC[C@@](C)(O)C5)nc(OCC5(CN6CCC(OC7CC8(CCN(c9ccc%10c(c9)CN(C9CCC(=O)NC9=O)C%10=O)CC8)C7)CC6)CC5)nc4c3F)c12 (stereo partly drawn) [Compound 182, 3-[5-[2-[[1-[[1-[[7-(8-ethyl-7-fluoro-3-hydroxy-1-naphthyl)-8-fluoro-4-[(3R)-3-hydroxy-3-methyl-1-piperidyl]pyrido[4,3-d]pyrimidin-2-yl]oxymethyl]cyclopropyl]methyl]-4-piperidyl]oxy]-7-azaspiro[3.5]nonan-7-yl]-1-oxo-isoindolin-2-yl]piperidine-2,6-dione] | 20 to 200 | 4900 | < 10 | < 1 | – | –
10 | CCc1c(F)ccc2cc(O)cc(-c3ncc4c(N5CCC[C@@](C)(O)C5)nc(OCC5(CN6CC7(CCC(N8CCN(c9cc(F)c(C%10CCC(=O)NC%10=O)c(F)c9)CC8)CC7)C6)CC5)nc4c3F)c12 (stereo partly drawn) [Compound 60, 3-(4-(4-(2-((1-(((7-(8-ethyl-7-fluoro-3-hydroxynaphthalen-1-yl)-8-fluoro-4-((R)-3-hydroxy-3-methylpiperidin-1-yl)pyrido[4,3-d]pyrimidin-2-yl)oxy)methyl)cyclopropyl)methyl)-2-azaspiro[3.5]nonan-7-yl)piperazin-1-yl)-2,6-difluorophenyl)piperidine-2,6-dione] | 20 to 200 | 1780 | < 10 | < 1 | – | –
11 | CCc1c(F)ccc2cc(O)cc(-c3ncc4c(N5CCC[C@@](C)(O)C5)nc(OCC5(CN6CCC(OC7CCC8(CC7)CN(c7ccc9c(c7)CN(C7CCC(=O)NC7=O)C9=O)C8)CC6)CC5)nc4c3F)c12 (stereo partly drawn) [Compound 184, 3-[5-[7-[[1-[[1-[[7-(8-ethyl-7-fluoro-3-hydroxy-1-naphthyl)-8-fluoro-4-[(3R)-3-hydroxy-3-methyl-1-piperidyl]pyrido[4,3-d]pyrimidin-2-yl]oxymethyl]cyclopropyl]methyl]-4-piperidyl]oxy]-2-azaspiro[3.5]nonan-2-yl]-1-oxo-isoindolin-2-yl]piperidine-2,6-dione] | > 200 | 12500 | < 10 | < 1 | – | –
12 | CCc1c(F)ccc2cc(O)cc(-c3ncc4c(N5CCC[C@@](C)(O)C5)nc(OCC5(CN6CCC7(CC6)CC(F)(CN6CCN(c8cc(F)c(C9CCC(=O)NC9=O)c(F)c8)CC6)C7)CC5)nc4c3F)c12 (stereo partly drawn) [Compound 46, 3-(4-(4-((7-((1-(((7-(8-ethyl-7-fluoro-3-hydroxynaphthalen-1-yl)-8-fluoro-4-((R)-3-hydroxy-3-methylpiperidin-1-yl)pyrido[4,3-d]pyrimidin-2-yl)oxy)methyl)cyclopropyl)methyl)-2-fluoro-7-azaspiro[3.5]nonan-2-yl)methyl)piperazin-1-yl)-2,6-difluorophenyl)piperidine-2,6-dione] | – | 9130 | < 10 | 1 to 10 | – | –
